Structures are written as SMILES. The source made the active and inactive calls. The calls are words filed in the database; no cut-off is given here.

Series [1] deals with Rattus norvegicus. Kind of series: Reversal of antihypersensitivity to pain in rat FCA model of inflammatory pain at 15 mg/kg, ip after 1 hr. It counts as functional, organism-based. Set-up: dose 15 mg/kg.
The test system of series [2] is Rattus norvegicus. The series is described as follows: Analgesic activity in po dosed rat FCA model of inflammatory pain. It counts as functional.
Series [3] concerns Rattus norvegicus. Kind of series: Reversal of hyperalgesia in rat at 0.3 mg/kg, po by weight bearing protocol. It counts as functional, organism-based. Details: dose 0.3 mg/kg.
A short description of series [4]: Drug concentration in blood of rat FCA model of inflammatory pain at 0.03 mg/kg, po after 1hr. It counts as ADME, organism-based. Set-up: dose 0.03 mg/kg, route oral. As to conditions: read-out: Activity.
Series [5] is described as follows: Half life in rat. It counts as ADME, organism-based. As to conditions: in vivo.
The next series concerns the target Cytochrome P450 2C9 (Homo sapiens, UniProt P11712). Kind of series: Inhibition of human CYP2C9. It counts as ADME.
The target in series [6] is T1, Cannabinoid receptor 2 (Homo sapiens, UniProt P34972). Kind of series: Efficacy at human recombinant CB2 receptor expressed in Saccharomyces cerevisiae cells relative to HU210. It counts as cell-based.
T1 sequence (P34972 whole entry): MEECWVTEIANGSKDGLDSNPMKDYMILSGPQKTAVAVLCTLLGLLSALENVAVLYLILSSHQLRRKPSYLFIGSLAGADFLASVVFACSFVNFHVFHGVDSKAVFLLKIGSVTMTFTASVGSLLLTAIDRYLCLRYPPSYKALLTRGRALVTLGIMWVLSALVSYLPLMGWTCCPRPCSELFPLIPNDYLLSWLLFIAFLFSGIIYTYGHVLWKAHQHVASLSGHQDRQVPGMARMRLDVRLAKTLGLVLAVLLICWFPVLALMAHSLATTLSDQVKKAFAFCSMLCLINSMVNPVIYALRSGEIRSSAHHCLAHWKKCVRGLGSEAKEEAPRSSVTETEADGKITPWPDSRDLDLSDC
For series [7], the target named is T1, Cannabinoid receptor 2. Kind of series: Agonist activity at human recombinant CB2 receptor expressed in Saccharomyces cerevisiae cells. It is filed as functional, cell-based.
Series [8] relates to Rattus norvegicus. The series is described as follows: Reversal of FCA-induced hyperalgesia in rat administered thrice daily at 1 mg/kg, po. It counts as functional, organism-based. Set-up: dose 1 mg/kg.
The nature of series [9]: Oral bioavailability in rat. It is filed as ADME, organism-based. The following applies: in vivo.
Series [10] can be described thus: Drug concentration in blood of rat FCA model of inflammatory pain at 0.3 mg/kg, po after 1hr. It counts as ADME, organism-based. Details: dose 0.3 mg/kg, route oral. The following applies: read-out: Activity.
A short description of series [11]: Drug concentration in blood of rat FCA model of inflammatory pain at 0.1 mg/kg, po after 1hr. It counts as ADME, organism-based. Details: dose 0.1 mg/kg, route oral. The following applies: read-out: Activity.
The next series deals with Cytochrome P450 2C19 (Homo sapiens, UniProt P33261). The series is described as follows: Inhibition of human CYP2C19. It counts as ADME.
Sequence of Cytochrome P450 2C19 (P33261 whole entry): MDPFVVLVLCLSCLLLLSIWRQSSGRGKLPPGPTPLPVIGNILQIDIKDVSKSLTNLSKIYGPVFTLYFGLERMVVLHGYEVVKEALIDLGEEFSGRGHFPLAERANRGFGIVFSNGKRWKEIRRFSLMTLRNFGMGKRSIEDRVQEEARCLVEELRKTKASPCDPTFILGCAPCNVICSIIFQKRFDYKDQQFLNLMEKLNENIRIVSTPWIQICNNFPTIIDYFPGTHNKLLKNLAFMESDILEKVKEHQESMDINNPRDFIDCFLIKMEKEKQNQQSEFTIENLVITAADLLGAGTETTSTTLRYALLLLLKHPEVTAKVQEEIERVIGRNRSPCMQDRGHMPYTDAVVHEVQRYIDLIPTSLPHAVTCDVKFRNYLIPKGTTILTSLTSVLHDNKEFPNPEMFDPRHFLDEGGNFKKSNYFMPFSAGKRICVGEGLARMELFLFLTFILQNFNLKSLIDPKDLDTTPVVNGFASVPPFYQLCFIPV
Series [12] addresses T2, Cannabinoid receptor 2 (Rattus norvegicus) (UniProt Q9QZN9).
T2 sequence (whole entry): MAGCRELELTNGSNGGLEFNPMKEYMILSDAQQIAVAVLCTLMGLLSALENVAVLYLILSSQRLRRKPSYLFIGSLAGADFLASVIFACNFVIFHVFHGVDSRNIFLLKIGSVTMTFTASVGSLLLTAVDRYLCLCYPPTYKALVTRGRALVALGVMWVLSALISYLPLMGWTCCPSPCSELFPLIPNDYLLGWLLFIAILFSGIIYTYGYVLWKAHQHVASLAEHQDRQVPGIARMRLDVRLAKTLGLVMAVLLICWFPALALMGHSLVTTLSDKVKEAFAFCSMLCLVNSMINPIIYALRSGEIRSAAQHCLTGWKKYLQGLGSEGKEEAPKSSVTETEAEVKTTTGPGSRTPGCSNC
The series is described as follows: (§1) Agonist activity at rat CB2 receptor. It is filed as functional.

Series [13] has as its target T3, Cannabinoid receptor 2 (Rattus norvegicus, UniProt Q9QZN9).
T3 sequence (Q9QZN9 whole entry): T2 sequence (whole entry)
The series is described as §1. It is filed as functional.

Another series has as its target T4, Cytochrome P450 1A2 (Homo sapiens, UniProt P05177).
T4 sequence (P05177 whole entry): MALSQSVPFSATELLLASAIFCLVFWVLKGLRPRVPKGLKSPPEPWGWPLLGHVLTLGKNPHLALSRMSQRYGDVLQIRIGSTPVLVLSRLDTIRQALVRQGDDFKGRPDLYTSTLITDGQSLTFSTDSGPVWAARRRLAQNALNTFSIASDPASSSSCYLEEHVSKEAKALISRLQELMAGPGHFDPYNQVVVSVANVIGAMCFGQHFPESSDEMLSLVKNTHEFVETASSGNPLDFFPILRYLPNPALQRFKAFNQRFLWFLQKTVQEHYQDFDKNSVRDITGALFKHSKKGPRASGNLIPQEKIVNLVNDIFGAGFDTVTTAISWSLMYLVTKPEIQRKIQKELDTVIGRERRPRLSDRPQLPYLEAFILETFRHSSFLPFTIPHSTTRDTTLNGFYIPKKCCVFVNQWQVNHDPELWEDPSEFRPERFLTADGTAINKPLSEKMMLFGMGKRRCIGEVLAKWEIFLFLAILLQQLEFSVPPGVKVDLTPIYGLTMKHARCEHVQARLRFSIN
The series is described as follows: Inhibition of human CYP1A2. It is filed as ADME.

The target of the next series is Cytochrome P450 2D6 (Homo sapiens, UniProt P10635). Kind of series: Inhibition of human CYP2D6. It counts as ADME.
Sequence of Cytochrome P450 2D6 (P10635 whole entry): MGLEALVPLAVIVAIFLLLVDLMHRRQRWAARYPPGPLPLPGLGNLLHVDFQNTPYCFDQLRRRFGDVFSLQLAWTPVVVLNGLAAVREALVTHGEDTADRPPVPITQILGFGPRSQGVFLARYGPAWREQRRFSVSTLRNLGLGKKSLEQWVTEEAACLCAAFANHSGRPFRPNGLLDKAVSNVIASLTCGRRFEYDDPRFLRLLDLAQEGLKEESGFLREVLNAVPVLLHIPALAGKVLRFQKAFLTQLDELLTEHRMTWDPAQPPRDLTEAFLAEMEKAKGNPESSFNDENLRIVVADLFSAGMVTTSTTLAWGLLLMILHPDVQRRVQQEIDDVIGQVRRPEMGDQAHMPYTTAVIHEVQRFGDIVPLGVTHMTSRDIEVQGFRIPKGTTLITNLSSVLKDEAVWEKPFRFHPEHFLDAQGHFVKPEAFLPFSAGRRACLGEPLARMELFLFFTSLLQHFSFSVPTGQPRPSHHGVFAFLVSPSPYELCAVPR
The next series concerns the target Cytochrome P450 3A4 (Homo sapiens, UniProt P08684). Kind of series: Inhibition of human CYP3A4.

Sequence of Cytochrome P450 3A4 (P08684 whole entry): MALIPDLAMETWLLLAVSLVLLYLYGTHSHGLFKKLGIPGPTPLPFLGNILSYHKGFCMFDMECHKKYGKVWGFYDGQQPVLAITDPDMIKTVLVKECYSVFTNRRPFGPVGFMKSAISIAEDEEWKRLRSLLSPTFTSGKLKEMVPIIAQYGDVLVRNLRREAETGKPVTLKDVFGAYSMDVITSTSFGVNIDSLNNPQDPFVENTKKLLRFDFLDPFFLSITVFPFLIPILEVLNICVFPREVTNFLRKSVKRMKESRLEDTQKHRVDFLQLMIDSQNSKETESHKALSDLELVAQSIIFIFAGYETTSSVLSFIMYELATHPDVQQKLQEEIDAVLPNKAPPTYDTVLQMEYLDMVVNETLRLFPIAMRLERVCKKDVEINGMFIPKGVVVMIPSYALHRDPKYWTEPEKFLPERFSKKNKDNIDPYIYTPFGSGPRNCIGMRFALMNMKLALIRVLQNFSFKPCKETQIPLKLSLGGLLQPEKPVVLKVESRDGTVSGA
Sequence of Cytochrome P450 2C9 (P11712 whole entry): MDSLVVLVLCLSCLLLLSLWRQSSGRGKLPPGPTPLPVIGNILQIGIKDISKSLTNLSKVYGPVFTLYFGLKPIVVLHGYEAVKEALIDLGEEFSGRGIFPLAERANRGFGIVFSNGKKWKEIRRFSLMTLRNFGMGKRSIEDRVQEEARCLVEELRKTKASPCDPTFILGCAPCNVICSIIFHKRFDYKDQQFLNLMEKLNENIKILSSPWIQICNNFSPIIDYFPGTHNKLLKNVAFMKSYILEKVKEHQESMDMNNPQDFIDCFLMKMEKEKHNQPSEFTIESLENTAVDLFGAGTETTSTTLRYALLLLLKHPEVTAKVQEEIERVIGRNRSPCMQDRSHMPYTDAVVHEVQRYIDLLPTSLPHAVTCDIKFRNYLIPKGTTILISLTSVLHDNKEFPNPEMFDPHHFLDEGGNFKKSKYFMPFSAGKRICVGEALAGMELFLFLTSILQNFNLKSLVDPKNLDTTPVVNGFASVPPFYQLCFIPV

On to `COc1ccc(C(=O)c2c(C)n(CCN3CCOCC3)c3cc(I)ccc23)cc1`, for which, in the series with Rattus norvegicus [1], the outcome was Active.
What is called ED50 is the dose at which the effect has come halfway, by size or by number of responders. A higher ED50 goes with a need for a large dose. A word on the half-life: it is how long it takes for the measured level to halve. One may read the IC50 as the midpoint of a concentration-inhibition curve. High values mean weaker potency, low ones greater potency. As a reminder, the EC50 is the concentration giving half of the maximal effect. The term bioavailability denotes the share of a dose that reaches the circulation, judged against a reference dose that is usually intravenous. A high value points to much systemic uptake. Regarding `O=C(NCC1CCOCC1)c1cnc(Nc2ccc(Cl)cc2Cl)nc1C(F)(F)F` [GW842166X], the ED50 in the series with Rattus norvegicus [2] came out at 0.1 mg/kg. Also, the outcome in the series on Rattus norvegicus [3] and in the series with Rattus norvegicus [8] was Active. Further, the results for the concentration at 1 h in series [4], in [10] and in series [11] were 0.03 µM, 0.37 µM and 0.13 µM, respectively. The same compound showed a half-life in [5] of 3 h. Also, the IC50 at Cytochrome P450 2C9, on Cytochrome P450 2C19, against Cytochrome P450 1A2, against Cytochrome P450 2D6 and at Cytochrome P450 3A4 was greater than 100 µM each time. The Efficacy at Cannabinoid receptor 2 [6] is 95%; in [12], 100%. In addition, the concentration giving a half-maximal response (EC50) on Cannabinoid receptor 2 [7] is 0.063 µM; at Cannabinoid receptor 2 [13], 0.091 µM. Further, in series [9], the bioavailability is 58%.

The values are drawn from ChEMBL document CHEMBL1143658, “Discovery of 2-[(2,4-dichlorophenyl)amino]-N-[(tetrahydro- 2H-pyran-4-yl)methyl]-4-(trifluoromethyl)- 5-pyrimidinecarboxamide, a selective CB2 receptor agonist for the treatment of inflammatory pain” (J Med Chem, 2007).
